Laboratory results: PubChem BioAssay (NCI)
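How tested: cells in 96-well plates exposed to compound for 48 hours at five concentrations. GI50 is the concentration that inhibits growth by half. At the TGI there is no net growth.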

How the values were obtained:
Experiment in all cases: growth of human tumour cells (NCI), 48 h
[1] = test system: HL-60(TB) leukemia
[2] = test system: EKVX NSCLC
[3] = test system: NCI/ADR-RES ovarian
[4] = test system: SK-MEL-2 melanoma
[5] = test system: HCC-2998 colon
[6] = test system: A498 renal
[7] = test system: SNB-19 CNS
[8] = test system: T-47D breast
[9] = test system: U251 CNS
[10] = test system: MOLT-4 leukemia
[11] = test system: SK-OV-3 ovarian
[12] = test system: SR leukemia
[13] = test system: HCT-116 colon
[14] = test system: DU-145 prostate
[15] = test system: SN12C renal
[16] = test system: LOX IMVI melanoma
[17] = test system: SF-539 CNS
[18] = test system: OVCAR-8 ovarian
[19] = test system: UACC-62 melanoma
[20] = test system: HCT-15 colon
[21] = test system: MDA-MB-231 breast
[22] = test system: UACC-257 melanoma
[23] = test system: K-562 leukemia
[24] = test system: COLO 205 colon
[25] = test system: M14 melanoma
[26] = test system: KM12 colon
[27] = test system: BT-549 breast
[28] = test system: SW-620 colon
[29] = test system: NCI-H522 lung
[30] = test system: 786-0 renal
[31] = test system: MCF7 breast
[32] = test system: PC-3 prostate
[33] = test system: NCI-H460 lung
[34] = test system: NCI-H23 lung
[35] = test system: CCRF-CEM leukemia
[36] = test system: HT29 colon
[37] = test system: OVCAR-5 ovarian
[38] = test system: IGROV1 ovarian
[39] = test system: UO-31 renal
[40] = test system: ACHN renal
[41] = test system: MDA-MB-435
[42] = test system: SF-268 CNS
[43] = test system: HOP-62 NSCLC
[44] = test system: SK-MEL-5 melanoma
[45] = test system: CAKI-1 renal
[46] = test system: NCI-H226 lung
[47] = test system: SF-295 CNS
[48] = test system: A549 NSCLC
[49] = test system: OVCAR-3 ovarian
[50] = test system: RXF 393 renal
[51] = test system: MALME-3M melanoma
[52] = test system: RPMI-8226 leukemia
[53] = test system: SNB-75 CNS
[54] = test system: TK-10 renal
[55] = test system: HOP-92 NSCLC
[56] = test system: SK-MEL-28 melanoma
[57] = test system: OVCAR-4 ovarian

`Cc1c(C(N)=O)sc2c1c(=O)n(Cc1ccccc1)c1nnc(SCC(=O)Nc3ccc(Cl)cc3)n21` showed a GI50 [1] of over 100 µM, a TGI [1] of over 100 µM and a GI50 [2] of 18.1 µM. For the same compound, the TGI [2] was over 100 µM, the GI50 [3] was over 100 µM and the TGI [3] was over 100 µM. For the same compound, the GI50 [4] was over 100 µM, the TGI [4] was over 100 µM and the GI50 [5] was 5.56 µM. It also gave a TGI [5] of over 100 µM, a GI50 [6] of 2.51 µM and a TGI [6] of over 100 µM. The GI50 [7] was 63.5 µM, the TGI [7] was over 100 µM and the GI50 [8] was 3.52 µM. For the same compound, the TGI [8] was 15.1 µM, the GI50 [9] was 4.14 µM and the TGI [9] was 19.5 µM. For the same compound, the GI50 [10] was over 100 µM, the TGI [10] was over 100 µM and the GI50 [11] was 3.37 µM. The TGI [11] was over 100 µM, the GI50 [12] was 3.19 µM and the TGI [12] was 14 µM. It also gave a GI50 [13] of 1.95 µM, a TGI [13] of 4.85 µM and a GI50 [14] of over 100 µM. For the same compound, the TGI [14] was over 100 µM, the GI50 [15] was over 100 µM and the TGI [15] was over 100 µM. For the same compound, the GI50 [16] was 5.45 µM, the TGI [16] was over 100 µM and the GI50 [17] was 2.53 µM. It also gave a TGI [17] of 6.33 µM, a GI50 [18] of 4.03 µM and a TGI [18] of over 100 µM. For the same compound, the GI50 [19] was 9.26 µM, the TGI [19] was over 100 µM and the GI50 [20] was over 100 µM. The TGI [20] was over 100 µM, the GI50 [21] was 3.81 µM and the TGI [21] was 19.4 µM. It also gave a GI50 [22] of 3.44 µM, a TGI [22] of over 100 µM and a GI50 [23] of 12.6 µM. It also gave a TGI [23] of over 100 µM, a GI50 [24] of 6.99 µM and a TGI [24] of over 100 µM. For the same compound, the GI50 [25] was 4.63 µM, the TGI [25] was over 100 µM and the GI50 [26] was 15.5 µM. The TGI [26] was over 100 µM, the GI50 [27] was 3.65 µM and the TGI [27] was over 100 µM. The GI50 [28] was over 100 µM, the TGI [28] was over 100 µM and the GI50 [29] was 4.12 µM. For the same compound, the TGI [29] was over 100 µM, the GI50 [30] was 2.46 µM and the TGI [30] was 7.78 µM. For the same compound, the GI50 [31] was 6.61 µM, the TGI [31] was over 100 µM and the GI50 [32] was 3.3 µM. For the same compound, the TGI [32] was over 100 µM, the GI50 [33] was 3.28 µM and the TGI [33] was over 100 µM. The GI50 [34] was 2.78 µM, the TGI [34] was 10.7 µM and the GI50 [35] was 25.1 µM. The TGI [35] was over 100 µM, the GI50 [36] was over 100 µM and the TGI [36] was over 100 µM. It also gave a GI50 [37] of over 100 µM, a TGI [37] of over 100 µM and a GI50 [38] of 28 µM. The TGI [38] was over 100 µM, the GI50 [39] was over 100 µM and the TGI [39] was over 100 µM. The GI50 [40] was over 100 µM, the TGI [40] was over 100 µM and the GI50 [41] was over 100 µM. For the same compound, the TGI [41] was over 100 µM, the GI50 [42] was 8.05 µM and the TGI [42] was over 100 µM. The GI50 [43] was 3.71 µM, the TGI [43] was 15.5 µM and the GI50 [44] was 4.89 µM. For the same compound, the TGI [44] was 24 µM, the GI50 [45] was over 100 µM and the TGI [45] was over 100 µM. The GI50 [46] was 5.8 µM, the TGI [46] was 46.2 µM and the GI50 [47] was 4.71 µM. The TGI [47] was 73.8 µM.
For `COc1ccc(-c2cc(-c3ccc(Nc4ccnc5cc(C(F)(F)F)ccc45)cc3)nc(N)c2C#N)cc1`, the TGI [1] was over 100 µM, the TGI [48] was over 100 µM and the TGI [49] was 33.7 µM. For the same compound, the TGI [2] was over 100 µM, the TGI [3] was over 100 µM and the TGI [50] was over 100 µM. It also gave a TGI [4] of over 100 µM, a TGI [5] of over 100 µM and a TGI [6] of over 100 µM. For the same compound, the TGI [51] was over 100 µM, the TGI [7] was over 100 µM and the TGI [8] was over 100 µM. For the same compound, the TGI [9] was over 100 µM, the TGI [10] was over 100 µM and the TGI [11] was over 100 µM. For the same compound, the TGI [12] was over 100 µM, the TGI [13] was 78.7 µM and the TGI [14] was over 100 µM. For the same compound, the TGI [52] was over 100 µM, the TGI [16] was over 100 µM and the TGI [17] was over 100 µM. It also gave a TGI [19] of over 100 µM, a TGI [20] of over 100 µM and a TGI [21] of over 100 µM. For the same compound, the TGI [23] was over 100 µM, the TGI [24] was over 100 µM and the TGI [53] was 71.6 µM. For the same compound, the TGI [25] was over 100 µM, the TGI [26] was over 100 µM and the TGI [27] was over 100 µM. The TGI [28] was over 100 µM, the TGI [30] was over 100 µM and the TGI [31] was over 100 µM. It also gave a TGI [32] of over 100 µM, a TGI [33] of over 100 µM and a TGI [54] of over 100 µM. The TGI [34] was over 100 µM, the TGI [55] was 90 µM and the TGI [56] was over 100 µM. The TGI [36] was over 100 µM, the TGI [37] was over 100 µM and the TGI [39] was over 100 µM. It also gave a TGI [40] of over 100 µM, a TGI [41] of over 100 µM and a TGI [43] of over 100 µM. The TGI [44] was over 100 µM, the TGI [45] was over 100 µM and the TGI [57] was over 100 µM. The TGI [46] was over 100 µM and the TGI [47] was over 100 µM.
